Data taken from ChEMBL document CHEMBL1201862, “PubChem BioAssay data set” (2004).
Activity calls are given as the source filed them.

Experiments:
HEK293 = experiment: inhibitors of LMP1-driven NF-kB reporter, dose response, cell-based, HEK293, luciferase, cherry-pick (AID 588343); type: functional; conditions: Homo sapiens
[1] = target: FAD-linked sulfhydryl oxidase ALR (Homo sapiens, UniProt P55789); experiment: inhibitors of human ALR sulfhydryl oxidase, dose response, biochemical, H2O2 detection, luminescence, cherry-pick (AID 493248)
[2] = target: T1, Calpain-2 catalytic subunit (Sus scrofa, UniProt P43367); experiment: pig calpain II inhibitor potency, dose response, biochemical, fluorogenic peptide substrate (AID 1420); type: functional
T1 sequence (P43367 whole entry): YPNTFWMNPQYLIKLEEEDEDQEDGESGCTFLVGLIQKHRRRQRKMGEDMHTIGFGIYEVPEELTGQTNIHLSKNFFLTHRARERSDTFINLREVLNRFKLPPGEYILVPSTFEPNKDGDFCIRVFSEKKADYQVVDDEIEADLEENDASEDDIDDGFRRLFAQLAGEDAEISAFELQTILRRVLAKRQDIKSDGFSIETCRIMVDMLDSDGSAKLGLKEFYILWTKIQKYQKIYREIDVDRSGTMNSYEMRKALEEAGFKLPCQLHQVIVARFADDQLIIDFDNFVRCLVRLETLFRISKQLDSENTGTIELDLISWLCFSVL

Cytochrome P450 2C9 = Cytochrome P450 2C9 (Homo sapiens, UniProt P11712)
[3] = target: Luciferin 4-monooxygenase (Photinus pyralis, UniProt P08659); experiment: firefly luciferase enzyme inhibitors, dose response, biochemical, luminescence (AID 1891)
[4] = Luminescence Cell-Based Dose Confirmation HTS to Identify Inhibitors of Platelet Dense Granule Release. [Related pubchem assays: 1663 (Primary HTS), 1678 (Summary of Project)]; type: functional
[5] = inhibitors of intracellular T. cruzi replication, confirmation, NIH3T3 host cells, beta-gal luminescence (AID 2044); type: functional, cell-based;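 further: intracellular parasites grown in NIH/3T3 mouse fibroblasts as host cells; luminescent beta-galactosidase reporter signal from transgenic T. cruzi replicating inside host cells; inhibitors lower the luminescence signal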
[6] = microbe, parasite or virus in culture; type: functional; conditions: Mycobacterium tuberculosis
[7] = target: T2, Heat shock factor protein 1 (Mus musculus, UniProt P38532); experiment: inhibition of MG132-induced HSE-luciferase signal, confirmation, cell-based, NIH3T3, luminescence, dose retest (AID 2382); type: functional;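 further: NIH3T3 fibroblasts with HSF1-driven luciferase reporter stressed by proteasome inhibitor MG132; luminescence from HSF1-driven luciferase expression after 8 hours of MG132 stress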
T2 sequence (P38532 whole entry): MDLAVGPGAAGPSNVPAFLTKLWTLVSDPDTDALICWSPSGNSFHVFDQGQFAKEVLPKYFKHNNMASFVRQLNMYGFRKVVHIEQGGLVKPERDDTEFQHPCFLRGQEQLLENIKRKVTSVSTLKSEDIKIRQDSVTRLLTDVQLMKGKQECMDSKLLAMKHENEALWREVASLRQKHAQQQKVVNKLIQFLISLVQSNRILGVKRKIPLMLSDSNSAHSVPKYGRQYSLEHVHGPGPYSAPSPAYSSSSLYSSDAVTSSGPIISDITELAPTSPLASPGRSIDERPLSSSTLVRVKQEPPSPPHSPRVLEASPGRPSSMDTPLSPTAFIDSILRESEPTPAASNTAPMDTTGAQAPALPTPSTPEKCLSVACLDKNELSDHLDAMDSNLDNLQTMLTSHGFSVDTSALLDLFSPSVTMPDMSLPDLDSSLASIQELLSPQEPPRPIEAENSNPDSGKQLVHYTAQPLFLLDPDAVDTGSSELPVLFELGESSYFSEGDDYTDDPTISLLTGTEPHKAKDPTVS

[8] = cytotoxicity toward NIH3T3 fibroblasts, dose response, counter-screen, cell-based, ATP luminescence, mouse fibroblasts (AID 2010); type: functional;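 further: cells exposed to compound for about 90 hours before reading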
[9] = Luminescence Cell-Based Dose Response HTS to Identify Activators of Luciferase Translation or Activity in H4 […] Cells. [Related pubchem assays: 1829 (Project Summary), 1814 (Primary HTS)]; type: functional
H4 = experiment: Luminescence Cell-Based Dose Response HTS to Identify Activators of 5'UTR Stem-Loop Driven Prion Protein mRNA Translation in H4 Neuroglioblastoma Cells. [Related pubchem assays: 1829 (Project Summary), 1814 (Primary HTS)]; type: functional; conditions: Homo sapiens
Genome polyprotein = Genome polyprotein (dengue virus type 2, UniProt P29990); experiment: Dengue-2 NS5 methyltransferase inhibitors, primary screen, biochemical, confirmation dose response (AID 588689); type: functional
[10] = cytotoxicity toward DRD oncogenic fibroblasts, dose response, cell-based, non-viral oncogenic, luminescence (AID 1934); type: functional; conditions: Homo sapiens
BJ [11] = experiment: cells; type: functional, cell-based; conditions: Homo sapiens
[12] = inhibitors of SNCA 5'UTR-driven reporter translation, confirmation, H4 neuroglioma cells, luminescence (AID 1988); type: functional, cell-based
BJ [13] = experiment: cytotoxicity toward BJ-TERT fibroblasts, dose response, cell-based, RAS-independent, luminescence (AID 1933); type: functional; conditions: Homo sapiens
BJ [14] = experiment: cytotoxicity toward BJ-TERT-LT-ST fibroblasts, dose response, cell-based, RAS-independent, luminescence (AID 1935); type: functional; conditions: Homo sapiens;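 further: BJ fibroblasts immortalized with TERT plus LT and ST oncogenes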
[15] = inhibitors of firefly luciferase expression or activity, dose response, H4 neuroglioma cells, luminescence (AID 1990); type: functional, cell-based
[16] = Luminescence Cell-Based Dose Response HTS to Identify Inhibitors of 5'UTR Stem-Loop Driven Prion Protein mRNA Translation in H4 Neuroglioblastoma Cells. [Related pubchem assays: 1827 (Project Summary), 1813 (Primary HTS)]; type: functional
[17] = HepG2 cell cytotoxicity, dose response, cytotoxicity control for Shn3 inhibitor project, CellTiter-Glo, cherry-picked (AID 624134); type: functional, cell-based
[18] = Shn3 3'UTR reporter inhibitors, dose response, cell-based, Clone20 osteoblasts, firefly luciferase, cherry-picked (AID 624132); type: functional;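 further: firefly luciferase luminescence from reporter carrying the Shn3 3'UTR in osteoblasts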
[19] = control 3'UTR Renilla luciferase suppression, dose response, counter-screen for Shn3 inhibitor project, cell-based, Clone20-Shn3RL, cherry-picked (AID 624133); type: functional
Protein skinhead-1 = target: T3, Protein skinhead-1 (Caenorhabditis elegans, UniProt P34707); type: functional
T3 sequence (P34707 whole entry): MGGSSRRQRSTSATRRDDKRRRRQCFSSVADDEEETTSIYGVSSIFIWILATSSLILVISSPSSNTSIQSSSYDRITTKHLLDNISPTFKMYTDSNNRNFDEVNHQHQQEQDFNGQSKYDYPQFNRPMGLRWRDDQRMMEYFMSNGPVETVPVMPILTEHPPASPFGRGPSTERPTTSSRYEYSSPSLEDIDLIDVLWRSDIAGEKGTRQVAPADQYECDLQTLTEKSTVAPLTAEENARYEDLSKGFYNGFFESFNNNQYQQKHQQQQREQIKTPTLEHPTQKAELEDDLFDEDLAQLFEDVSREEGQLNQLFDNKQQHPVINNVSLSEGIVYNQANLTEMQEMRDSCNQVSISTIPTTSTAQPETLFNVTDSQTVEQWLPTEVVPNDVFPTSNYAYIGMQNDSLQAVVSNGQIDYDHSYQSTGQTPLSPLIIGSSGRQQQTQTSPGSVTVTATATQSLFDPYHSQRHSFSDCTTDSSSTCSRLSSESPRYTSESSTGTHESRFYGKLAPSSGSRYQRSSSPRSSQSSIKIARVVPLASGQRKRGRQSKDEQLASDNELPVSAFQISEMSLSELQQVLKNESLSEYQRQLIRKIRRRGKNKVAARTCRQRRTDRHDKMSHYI

Chain of FAD-linked sulfhydryl oxidase ALR (P55789 whole entry): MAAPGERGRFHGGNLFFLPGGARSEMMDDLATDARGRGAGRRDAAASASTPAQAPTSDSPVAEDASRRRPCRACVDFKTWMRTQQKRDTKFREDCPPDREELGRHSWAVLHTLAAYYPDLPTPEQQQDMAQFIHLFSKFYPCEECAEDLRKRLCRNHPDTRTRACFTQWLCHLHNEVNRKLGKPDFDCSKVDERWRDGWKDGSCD
Chain of Genome polyprotein (P29990 2492-3391 limits assumed): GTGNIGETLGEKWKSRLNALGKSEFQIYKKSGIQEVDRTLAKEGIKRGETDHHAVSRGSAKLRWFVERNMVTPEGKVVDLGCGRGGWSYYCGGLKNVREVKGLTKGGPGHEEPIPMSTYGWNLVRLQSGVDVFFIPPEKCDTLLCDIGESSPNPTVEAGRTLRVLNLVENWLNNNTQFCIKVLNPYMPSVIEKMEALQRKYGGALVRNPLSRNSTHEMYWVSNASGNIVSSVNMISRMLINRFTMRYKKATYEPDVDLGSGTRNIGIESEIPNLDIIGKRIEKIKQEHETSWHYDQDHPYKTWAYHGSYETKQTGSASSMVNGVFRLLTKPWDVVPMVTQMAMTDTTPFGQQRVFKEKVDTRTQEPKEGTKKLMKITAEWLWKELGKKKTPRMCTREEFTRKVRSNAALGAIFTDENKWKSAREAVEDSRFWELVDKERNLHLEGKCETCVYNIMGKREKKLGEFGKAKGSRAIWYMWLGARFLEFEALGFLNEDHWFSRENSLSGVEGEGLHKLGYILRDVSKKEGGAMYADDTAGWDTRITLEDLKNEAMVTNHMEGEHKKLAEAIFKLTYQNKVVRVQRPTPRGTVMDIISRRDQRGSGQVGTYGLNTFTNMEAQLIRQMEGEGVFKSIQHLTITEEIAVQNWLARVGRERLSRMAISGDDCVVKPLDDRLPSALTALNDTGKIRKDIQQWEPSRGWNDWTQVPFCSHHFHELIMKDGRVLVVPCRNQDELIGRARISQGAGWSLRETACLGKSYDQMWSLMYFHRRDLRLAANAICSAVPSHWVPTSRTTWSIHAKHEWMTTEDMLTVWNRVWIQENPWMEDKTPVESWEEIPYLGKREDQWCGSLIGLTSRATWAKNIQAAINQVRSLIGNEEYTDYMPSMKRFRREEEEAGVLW
Chain of Luciferin 4-monooxygenase (P08659 whole entry): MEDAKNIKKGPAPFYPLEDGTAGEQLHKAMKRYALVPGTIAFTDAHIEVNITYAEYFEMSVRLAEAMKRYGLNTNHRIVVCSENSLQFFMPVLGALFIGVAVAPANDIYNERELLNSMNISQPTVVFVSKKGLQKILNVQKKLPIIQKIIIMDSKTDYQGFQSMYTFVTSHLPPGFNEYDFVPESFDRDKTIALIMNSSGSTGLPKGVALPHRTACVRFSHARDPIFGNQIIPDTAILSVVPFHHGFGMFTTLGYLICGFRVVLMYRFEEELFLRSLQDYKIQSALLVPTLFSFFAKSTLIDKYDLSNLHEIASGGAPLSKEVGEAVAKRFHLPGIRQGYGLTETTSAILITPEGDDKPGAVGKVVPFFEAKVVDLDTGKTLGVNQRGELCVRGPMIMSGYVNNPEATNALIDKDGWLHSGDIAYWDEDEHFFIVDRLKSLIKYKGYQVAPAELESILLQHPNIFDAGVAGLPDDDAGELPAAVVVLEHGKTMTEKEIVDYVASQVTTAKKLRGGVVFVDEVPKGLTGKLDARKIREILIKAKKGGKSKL
Chain of Cytochrome P450 2C9 (P11712 whole entry): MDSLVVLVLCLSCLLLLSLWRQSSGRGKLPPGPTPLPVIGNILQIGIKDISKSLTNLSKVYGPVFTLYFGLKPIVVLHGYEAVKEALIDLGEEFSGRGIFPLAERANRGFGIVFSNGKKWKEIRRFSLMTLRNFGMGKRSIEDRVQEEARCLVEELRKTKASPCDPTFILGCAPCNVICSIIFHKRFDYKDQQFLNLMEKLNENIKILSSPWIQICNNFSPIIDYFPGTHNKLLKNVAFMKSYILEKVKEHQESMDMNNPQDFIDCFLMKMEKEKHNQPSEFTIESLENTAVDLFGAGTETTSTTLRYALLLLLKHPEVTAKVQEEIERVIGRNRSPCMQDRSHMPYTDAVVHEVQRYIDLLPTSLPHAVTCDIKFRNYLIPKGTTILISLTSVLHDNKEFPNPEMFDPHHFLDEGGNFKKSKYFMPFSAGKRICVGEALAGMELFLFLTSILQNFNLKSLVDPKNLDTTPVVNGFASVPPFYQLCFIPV

## COc1cc(N(C)C)c([N+](=O)[O-])cc1C(=O)N1CCN(Cc2ccccc2)CC1
HEK293
  AC50: 12.8 µM (active)

## CC(C)(C)c1cc(-c2nnc(S)n2-c2ccccc2F)[nH]n1
[1]
  AC50: 2.1 µM (active)

## CN(C)c1ccc(/C=N/NS(=O)(=O)c2ccc(Br)cc2)cc1
[1]
  AC50: 33.5 µM (active)

## Cc1ccc(-c2cc(C(=O)N/N=C/C=C/c3ccco3)c3ccccc3n2)cc1C
HEK293
  AC50: 1.63 µM (active)

## CC(C)CCNc1nc2c(c(=O)n(Cc3cccc(F)c3)c(=O)n2C)n1C
[2]
  IC50: 44.7 µM (not active)

## COc1ccc(CC(=O)N2CCN(c3ccc(C4=NNC(=O)CC4C)cc3)CC2)cc1 (stereo unspecified)
Cytochrome P450 2C9
  AC50: 8.91 µM (inconclusive)
[3]
  EC50: > 112 µM (not active)
[1]
  AC50: 20.8 µM (active)
[4]
  EC50: < 0.088 µM (active)

## CCOc1ccc(-c2cnc(NCc3cccc4ccccc34)n2CCOC)cc1
[5]
  EC50: 0.979 µM (active)
[6]
  CC50: 12.2 µM (active)
[7]
  EC50: > 195 µM (not active)
[8]
  EC50: > 60 µM (not active)

## O=C(Cc1cccs1)Nc1ccc(-c2nc3ccccc3[nH]2)cc1
[9]
  EC50: 1.51 µM (active)
H4
  EC50: 0.236 µM (active)

## CCN(CCCNC(=O)CCn1c(=O)[nH]c2ccsc2c1=O)c1ccccc1
[7]
  EC50: > 195 µM (not active)
[2]
  IC50: < 0.4 µM (not active)

## COc1ccc2c(c1OC)C(=O)OC2c1c(O)n(Cc2ccc(F)cc2)c(=O)[nH]c1=O (stereo unspecified)
Genome polyprotein
  IC50: 69.7 µM (active)

## CC(O)CNc1nc2ccccc2n1-c1ncnc2sc3c(c12)CCC3 (stereo unspecified)
[6]
  CC50: 29.6 µM (active)

## CC1(C)CC(=O)C(C(C2=C(O)CC(C)(C)CC2=O)c2ccc(O)c([N+](=O)[O-])c2)=C(O)C1
Genome polyprotein
  IC50: 9.49 µM (active)

## COc1cc(OC)cc(C(=O)c2c(C)c(C#N)c3ccccn23)c1
[10]
  EC50: 1.49 µM (active)
BJ [11]
  EC50: 0.769 µM (active)
[12]
  EC50: 2.6 µM (active)
BJ [13]
  EC50: 2.54 µM (active)
BJ [14]
  EC50: 1.46 µM (inconclusive)
[15]
  EC50: 15 µM (active)
[16]
  EC50: > 120 µM (not active)

## CCOC(=O)c1cnc2c(Cl)ccc(Cl)c2c1O
[2]
  IC50: 17.3 µM (not active)

## Cc1nc2ccc(S(=O)(=O)NCC(=O)N(C)Cc3ccccc3)cc2s1
[1]
  AC50: 1.05 µM (active)

## Cc1ccc(N/N=C2\CCS(=O)(=O)c3sccc32)cc1
[1]
  AC50: 0.311 µM (active)
[2]
  IC50: > 50 µM (not active)

## O=C(O)CN1C(=O)/C(=C\c2ccccc2OCc2ccc(Cl)cc2)SC1=S
Genome polyprotein
  IC50: 43.3 µM (active)

## CCCN(C#N)c1nc(NCC)nc(NC(C)C)n1
[2]
  IC50: > 50 µM (not active)

## COc1ccccc1N=C(S)N(Cc1ccco1)Cc1cc2ccc(C)c(C)c2nc1O
[10]
  EC50: 0.685 µM (active)
BJ [11]
  EC50: 20.2 µM (inconclusive)
BJ [13]
  EC50: 0.717 µM (inconclusive)
BJ [14]
  EC50: 0.525 µM (active)

## Cc1cc(N)n2ncc(-c3ccccc3)c2n1
[9]
  EC50: 0.137 µM (active)
[1]
  AC50: 18.9 µM (active)

## Cc1cc(C)cc(-n2ncc3c2CCCC3NC(=O)c2cc(C)n(C)n2)c1 (stereo unspecified)
[1]
  AC50: 4.51 µM (active)

## COc1ccc(-n2nc3c(N4CCC(C(=O)NCC(C)c5ccccc5)CC4)nnc(C)c3c2C)cc1 (stereo unspecified)
[17]
  AC50: 30.2 µM (active)
[18]
  AC50: 3.25 µM (active)
[19]
  AC50: 36.7 µM (active)

## COc1ccc(CC(=O)Nc2ccccc2N2CCCC2)cc1OC
[1]
  AC50: 12.6 µM (active)

## Oc1ccccc1/C=N/NC(=S)NC1CC2CC1C1C=CCC21 (stereo unspecified)
[6]
  CC50: 13.9 µM (active)

## CC1(C)Nc2ccccc2N(CC(=O)N2CCCCC2)C1=O
[1]
  AC50: 1.96 µM (active)

## CC1CCCC/C1=N\NC(=S)NCCc1ccccc1 (stereo unspecified)
[6]
  CC50: > 40 µM (active)

## Cc1cc([N+](=O)[O-])nn1CCCC(=O)Nc1cc(Oc2ccccc2)cc([N+](=O)[O-])c1
[2]
  IC50: 5.32 µM (not active)

## COc1ccc(-c2csc3ncnc(N4CCN(c5ccccc5OC)CC4)c23)cc1
[6]
  CC50: > 40 µM (active)

## CC(C)c1ccc(NC(=O)Cc2c(C(=O)O)n(C)c3ccccc23)cc1
[1]
  AC50: 6.73 µM (active)

## COc1ccc(Nc2nc(N)c(C(=O)c3ccc(F)cc3)s2)cc1
[10]
  EC50: 2.8 µM (inconclusive)
BJ [11]
  EC50: 54.4 µM (inconclusive)
BJ [13]
  EC50: 2.89 µM (inconclusive)
BJ [14]
  EC50: 37.5 µM (active)

## Nc1c(C(=O)O)sc2nc(-c3ccccc3)cc(-c3ccc(Cl)cc3)c12
[7]
  EC50: > 195 µM (not active)
Genome polyprotein
  IC50: 70.8 µM (active)

## COc1cc2cc(C(=O)Nc3ccc4c(c3)OCCO4)[nH]c2cc1OC
HEK293
  AC50: 0.595 µM (active)
[7]
  EC50: 0.907 µM (active)

## O=C(/C=C/Nc1ccc(Br)cc1F)c1ccccc1
[12]
  EC50: 4.27 µM (active)
[3]
  EC50: 0.542 µM (active)
HEK293
  AC50: 1.65 µM (active)
Protein skinhead-1
  IC50: > 100 µM (inactive)
[4]
  EC50: 4.16 µM (active)
[16]
  EC50: 9.38 µM (active)

## CC(=O)c1ccc(NC(=O)N2CCN(c3ccc(C)cc3)C(C)C2)cc1 (stereo unspecified)
[1]
  AC50: 3.56 µM (active)

## Cc1cc(NC(=O)c2ccc3c(c2)C(=O)N(CCC(C)C)C3=O)no1
[2]
  IC50: 17.2 µM (not active)
